Patent US8927227B2, “Method of measuring effects of components on cell reactive oxygen species production” (Colgate-Palmolive Company, priority 2008, dated 2015)

Tested on: Human histocytic lymphoma U937 cells
Assay: Intracellular ROS fluorescence assay (DCF-DA / DHR123) in U937 cells exposed to H2O2 and LPS
Assay type: cell-based
Experimental: Human histocytic lymphoma U937 cells (ATCC, Manassas, Va.) were initially cultured in RPMI-1640 media (ATCC, Manassas, Va.) containing 10% serum and 1% penicillin, and then transferred at a concentration of 2×10^5 cells/ml into media containing 1 ng/ml PMA for 48 hours at 37° C. The cells were starved overnight in serum-free culture media before exposure to dye.
Cells were washed with PBS buffer twice, and divided into two sets to be incubated with DCF-DA or DHR123 (Calibochem, La Jolla, Calif.) for 30 minutes at 30° C. Cells are washed with PBS twice to remove residual dye. Appropriate experimental controls are also maintained.
Cells are then divided into several groups, and various amounts of a 1% solution of α-tocopherol (Vitamin E), substance 1, or substance 2 is added to each of the groups, and incubated at 37° C. for 15 minutes. Cells then were washed twice with PBS to remove residual amounts of test compounds. ROS agents H2O2 and LPS then were added and incubated for different periods of time. Fluorescence of the cells then were read at excitation 485 nm and emission 530 nm for up to 5 hours.

For `Cc1c(C)c2c(c(C)c1O)CC[C@@](C)(CCC[C@H](C)CCC[C@H](C)CCCC(C)C)O2` [α-tocopherol], which “reduction of oxidative level” value (2 ppm active, 2.5 mM hydrogen peroxide, FIG. 2) is on record?
Its value is “approximately 30%”.

What about the “capability in scavenging ROS or free radicals” value (10 ppm and 100 ppm active compared with 2 ppm, 2.5 mM hydrogen peroxide, FIG. 2) of the same molecule?
The value was “did not show enhanced capability in scavenging ROS or free radicals”.

And the “cell fluorescence versus cells incubated without test compound” value (two hours of incubation, ROS at 2.5 mM and ROS stimulant, FIG. 1)?
Its value is “cells incubated in the absence of a test compound but in the presence of the ROS at 2.5 mM and ROS stimulant fluoresce greater”.
